Reference: the NIST ThermoML archive (doi:10.1021/je9010129)

Test: refractive index (Na D-line) (dimensionless); mn = molality of the nth substance listed, in mol/kg
Conditions: 101 kPa, Liquid, Standard Abbe refractometry

N.N.O=S(=O)(O)O [ammonium sulfate] + O
refractive index
Conditions | 288.15 K | 298.15 K | 308.15 K | 318.15 K
m1 = 0.2725 | 1.33934 | 1.33813 | 1.33696 | 1.33544
m1 = 0.3995 | 1.34174 | 1.3408 | 1.33941 | 1.33806
m1 = 0.4876 | 1.34348 | 1.34227 | 1.34098 | 1.33956
m1 = 0.8025 | 1.34905 | 1.34798 | 1.3467 | 1.34521
m1 = 1.198 | 1.35554 | 1.35434 | 1.353 | 1.35156
m1 = 1.604 | 1.3614 | 1.36025 | 1.35888 | 1.3574
m1 = 1.992 | 1.36659 | 1.36535 | 1.36402 | 1.36252
m1 = 2.381 | 1.37134 | 1.37008 | 1.36878 | 1.36733
m1 = 2.801 | 1.37588 | 1.37472 | 1.37338 | 1.37211
m1 = 3.2 | 1.38006 | 1.37873 | 1.37738 | 1.37611
m1 = 3.619 | 1.38383 | 1.38259 | 1.38126 | 1.38009
m1 = 3.997 | 1.38708 | 1.38596 | 1.38446 | 1.38325
m1 = 4.396 | 1.39018 | 1.38897 | 1.3876 | 1.38647
m1 = 4.763 | 1.39286 | 1.3917 | 1.39031 | 1.38922
m1 = 5.181 | 1.3957 | 1.39451 | 1.3932 | 1.39197
m1 = 5.6 | 1.39836 | 1.39715 | 1.39584 | 1.39461
m1 = 5.876 | – | – | 1.3975 | 1.39618
m1 = 6.328 | – | – | – | 1.3983

O=S(=O)([O-])[O-].[K+].[K+] [potassium sulfate] + O
refractive index
Conditions | 288.15 K | 298.15 K | 308.15 K | 318.15 K
m1 = 0.0456 | 1.33447 | 1.33359 | 1.33228 | 1.33072
m1 = 0.1387 | 1.33636 | 1.33552 | 1.33411 | 1.33251
m1 = 0.2502 | 1.33866 | 1.33771 | 1.33625 | 1.33466
m1 = 0.3409 | 1.34035 | 1.33945 | 1.33786 | 1.33626
m1 = 0.4174 | 1.34183 | 1.34071 | 1.33927 | 1.33763
m1 = 0.503 | 1.3433 | 1.34227 | 1.34077 | 1.33906
m1 = 0.5093 | 1.34341 | 1.3423 | 1.34084 | 1.3392
m1 = 0.5703 | 1.34451 | 1.34337 | 1.34186 | 1.34022
m1 = 0.6509 | – | 1.34476 | 1.34324 | 1.34151
m1 = 0.7435 | – | – | 1.34478 | 1.34301
m1 = 0.8106 | – | – | – | 1.34404
m1 = 0.8605 | – | – | – | 1.34488
m1 = 0.9049 | – | – | – | 1.34557

O=S(=O)([O-])[O-].[Na+].[Na+] [sodium sulfate] + O
refractive index
Conditions | 288.15 K | 298.15 K | 308.15 K | 318.15 K
m1 = 0.1002 | 1.33566 | 1.33473 | 1.33342 | 1.33185
m1 = 0.1938 | 1.33757 | 1.33653 | 1.33518 | 1.33378
m1 = 0.477 | 1.34311 | 1.34187 | 1.34052 | 1.33896
m1 = 0.7055 | 1.34719 | 1.34585 | 1.34434 | 1.34278
m1 = 0.8578 | 1.34983 | 1.34855 | 1.34695 | 1.34531
m1 = 0.9866 | – | 1.35058 | 1.34904 | 1.34742
m1 = 1.206 | – | 1.35377 | 1.3522 | 1.35057
m1 = 1.59 | – | 1.35915 | 1.35746 | 1.35598
m1 = 1.727 | – | 1.36096 | 1.35931 | 1.35778
m1 = 1.992 | – | – | 1.36271 | 1.36102
m1 = 2.237 | – | – | 1.36573 | 1.36396
m1 = 2.532 | – | – | 1.36884 | 1.36711
m1 = 2.681 | – | – | 1.37046 | 1.36857
m1 = 2.805 | – | – | 1.37172 | 1.36992
m1 = 3.053 | – | – | 1.37411 | 1.37246
m1 = 3.219 | – | – | 1.37569 | 1.37386
m1 = 3.305 | – | – | 1.37649 | 1.3747
m1 = 3.423 | – | – | 1.37756 | –

O [water] + N.N.O=S(=O)(O)O
m2 = 0
Conditions | refractive index
288.15 K | 1.33339
298.15 K | 1.33248
308.15 K | 1.33128
318.15 K | 1.32979

O [water] + O=S(=O)([O-])[O-].[K+].[K+]
m2 = 0
Conditions | refractive index
288.15 K | 1.33339
298.15 K | 1.33248
308.15 K | 1.33128
318.15 K | 1.32979

O [water] + O=S(=O)([O-])[O-].[Na+].[Na+]
m2 = 0
Conditions | refractive index
288.15 K | 1.33339
298.15 K | 1.33248
308.15 K | 1.33128
318.15 K | 1.32979
